Test results reported in US8192962B2, “Processes for detecting toxic substances” (Daikin Industries, Ltd., priority 2001, dated 2012).

Tested on: Genes belonging to other category
Test: DNA chip mRNA expression in yeast, genes belonging to other category (Table 9)
Assay type: cell-based, Saccharomyces cerevisiae S288C
Procedure, shortened: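 Value is the scanned fluorescence intensity ratio of exposed versus chemical-free cells. Log-phase S288C yeast in YPD at 25° C. received one toxic substance for two hours, dosed to slow growth without killing; Cy3/Cy5-labeled cDNA from oligo-dT-purified mRNA was hybridized to a whole-genome chip at 65° C.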

S=C([S-])NCCNC(=S)[S-].[Zn+2] [(11), zinc N,N′-ethylenebis(dithiocarbamate)]
The level of expressed mRNA in the presence of chemical substance/The level of expressed mRNA in the absence of chemical substance (yeast gene YNL083W): 0.9
The level of expressed mRNA in the presence of chemical substance/The level of expressed mRNA in the absence of chemical substance (yeast gene YNL093W): 1.6
The level of expressed mRNA in the presence of chemical substance/The level of expressed mRNA in the absence of chemical substance (yeast gene YNL135C): 0.7
The level of expressed mRNA in the presence of chemical substance/The level of expressed mRNA in the absence of chemical substance (yeast gene YNL147W): 1.2
The level of expressed mRNA in the presence of chemical substance/The level of expressed mRNA in the absence of chemical substance (yeast gene YNL196C): 0.7
The level of expressed mRNA in the presence of chemical substance/The level of expressed mRNA in the absence of chemical substance (yeast gene YNL333W): 2.0
The level of expressed mRNA in the presence of chemical substance/The level of expressed mRNA in the absence of chemical substance (yeast gene YNR010W): 1.4
The level of expressed mRNA in the presence of chemical substance/The level of expressed mRNA in the absence of chemical substance (yeast gene YNR030W): 1.2
The level of expressed mRNA in the presence of chemical substance/The level of expressed mRNA in the absence of chemical substance (yeast gene YNR034W): 1.3
The level of expressed mRNA in the presence of chemical substance/The level of expressed mRNA in the absence of chemical substance (yeast gene YNR035C): 1.5
The level of expressed mRNA in the presence of chemical substance/The level of expressed mRNA in the absence of chemical substance (yeast gene YNR047W): 0.6
The level of expressed mRNA in the presence of chemical substance/The level of expressed mRNA in the absence of chemical substance (yeast gene YNR069C): 2.5
The level of expressed mRNA in the presence of chemical substance/The level of expressed mRNA in the absence of chemical substance (yeast gene YOL005C): 1.6
The level of expressed mRNA in the presence of chemical substance/The level of expressed mRNA in the absence of chemical substance (yeast gene YOL013C): 1.4
The level of expressed mRNA in the presence of chemical substance/The level of expressed mRNA in the absence of chemical substance (yeast gene YOL164W): 1.0
The level of expressed mRNA in the presence of chemical substance/The level of expressed mRNA in the absence of chemical substance (yeast gene YOR003W): 0.7
The level of expressed mRNA in the presence of chemical substance/The level of expressed mRNA in the absence of chemical substance (yeast gene YOR023C): 0.9
The level of expressed mRNA in the presence of chemical substance/The level of expressed mRNA in the absence of chemical substance (yeast gene YOR036W): 1.3
The level of expressed mRNA in the presence of chemical substance/The level of expressed mRNA in the absence of chemical substance (yeast gene YOR058C): 1.4
The level of expressed mRNA in the presence of chemical substance/The level of expressed mRNA in the absence of chemical substance (yeast gene YOR117W): 1.2
The level of expressed mRNA in the presence of chemical substance/The level of expressed mRNA in the absence of chemical substance (yeast gene YOR124C): 1.2
The level of expressed mRNA in the presence of chemical substance/The level of expressed mRNA in the absence of chemical substance (yeast gene YOR132W): 1.3
The level of expressed mRNA in the presence of chemical substance/The level of expressed mRNA in the absence of chemical substance (yeast gene YOR148C): 1.3
The level of expressed mRNA in the presence of chemical substance/The level of expressed mRNA in the absence of chemical substance (yeast gene YOR157C): 1.6
The level of expressed mRNA in the presence of chemical substance/The level of expressed mRNA in the absence of chemical substance (yeast gene YOR181W): 1.0
The level of expressed mRNA in the presence of chemical substance/The level of expressed mRNA in the absence of chemical substance (yeast gene YOR185C): 1.2
The level of expressed mRNA in the presence of chemical substance/The level of expressed mRNA in the absence of chemical substance (yeast gene YOR198C): 1.4
The level of expressed mRNA in the presence of chemical substance/The level of expressed mRNA in the absence of chemical substance (yeast gene YOR230W): 1.6
The level of expressed mRNA in the presence of chemical substance/The level of expressed mRNA in the absence of chemical substance (yeast gene YOR259C): 1.0
The level of expressed mRNA in the presence of chemical substance/The level of expressed mRNA in the absence of chemical substance (yeast gene YOR261C): 2.1
The level of expressed mRNA in the presence of chemical substance/The level of expressed mRNA in the absence of chemical substance (yeast gene YOR265W): 1.3
The level of expressed mRNA in the presence of chemical substance/The level of expressed mRNA in the absence of chemical substance (yeast gene YOR288C): 1.4
The level of expressed mRNA in the presence of chemical substance/The level of expressed mRNA in the absence of chemical substance (yeast gene YOR298W): 0.1
The level of expressed mRNA in the presence of chemical substance/The level of expressed mRNA in the absence of chemical substance (yeast gene YOR312C): 0.8
The level of expressed mRNA in the presence of chemical substance/The level of expressed mRNA in the absence of chemical substance (yeast gene YOR355W): 1.2
The level of expressed mRNA in the presence of chemical substance/The level of expressed mRNA in the absence of chemical substance (yeast gene YOR383C): 1.4
The level of expressed mRNA in the presence of chemical substance/The level of expressed mRNA in the absence of chemical substance (yeast gene YPL089C): 0.9
The level of expressed mRNA in the presence of chemical substance/The level of expressed mRNA in the absence of chemical substance (yeast gene YPL105C): 0.6
The level of expressed mRNA in the presence of chemical substance/The level of expressed mRNA in the absence of chemical substance (yeast gene YPL109C): −0.2
The level of expressed mRNA in the presence of chemical substance/The level of expressed mRNA in the absence of chemical substance (yeast gene YPL149W): 1.2
The level of expressed mRNA in the presence of chemical substance/The level of expressed mRNA in the absence of chemical substance (yeast gene YPL154C): 1.8
The level of expressed mRNA in the presence of chemical substance/The level of expressed mRNA in the absence of chemical substance (yeast gene YPL177C): 1.4
The level of expressed mRNA in the presence of chemical substance/The level of expressed mRNA in the absence of chemical substance (yeast gene YPL230W): 3.1
The level of expressed mRNA in the presence of chemical substance/The level of expressed mRNA in the absence of chemical substance (yeast gene YPR028W): 1.4
The level of expressed mRNA in the presence of chemical substance/The level of expressed mRNA in the absence of chemical substance (yeast gene YPR066W): 0.9
The level of expressed mRNA in the presence of chemical substance/The level of expressed mRNA in the absence of chemical substance (yeast gene YPR081C): 0.9
The level of expressed mRNA in the presence of chemical substance/The level of expressed mRNA in the absence of chemical substance (yeast gene YPR103W): 0.9
The level of expressed mRNA in the presence of chemical substance/The level of expressed mRNA in the absence of chemical substance (yeast gene YPR108W): 1.8
The level of expressed mRNA in the presence of chemical substance/The level of expressed mRNA in the absence of chemical substance (yeast gene YPR155C): 0.9
The level of expressed mRNA in the presence of chemical substance/The level of expressed mRNA in the absence of chemical substance (yeast gene YPR185W): 0.9
